Measurements from patent US8980077B2, “Plating bath and method” (Rohm and Haas Electronic Materials LLC, priority 2012, dated 2015).
In brackets after ≈: the same amount, converted by molar mass.

Experiments:
[1] = Solubility in 17% methane sulfonic acid (MSA)/DI water solution; settings: aqueous with cosolvent or surfactant or cyclodextrin, thermodynamic from solid
Protocol: (§2) If a compound dissolved, then an additional 25 mg (in increments) of that compound was added until either no more would dissolve or 250 mg were dissolved in the 5 mL.

[2] = Stability in 17% MSA/water at 50° C., visual inspection for precipitation; settings: for Stability (at 50° C.): 5 mg in 1 mL 17% MSA/water, time without precipitation; for Stability compared with Comparatives 1 and 2: 17% MSA/water
Protocol: The stability of various compounds was determined as follows: 5 mg of a compound was dissolved into 1 mL of 17% MSA/water solution and placed in a glass vial. Each vial was capped and placed in a dry heating bath at 50° C. for up to three weeks. Each sample was periodically removed from the bath and visually inspected for evidence of precipitation.

[3] = Extended storage or long-term use in tin-silver electroplating bath (prior-art complexers); type: physicochemical
Source text: U.S. Pat. No. 6,998,036 discloses an acidic tin-silver alloy electroplating bath containing a certain sulfide or thiol-substituted ether compound.
U.S. Pat. No. 7,628,903 discloses conventional silver and silver-alloy electroplating baths containing certain sulfide compounds. This patent purports that these electroplating baths have good stability.

[4] = Stability Test 1: DI water solution plus aqueous MSA (70%), 50° C. oven, visual inspection for precipitate; type: physicochemical; settings: 5.96 mg/mL in DI water plus aqueous MSA (70%)
Protocol: (§1) The stability of Compound 6 and Comparative 1 were determined using 2 different tests. In Test 1, solutions of each of Compound 6 and Comparative 1 dissolved in DI water (at a concentration of 5.96 mg/mL) were placed in separate vials. To each vial was added aqueous MSA (70%), the vials were then capped, placed in a 50° C. oven, and periodically visually inspected for the formation of precipitate. […] In Test 2, solutions of each of Compound 6 and Comparative 1 dissolved in D2O (at a concentration of 5.96 mg/mL) were placed in separate NMR tubes. A ^1H NMR (400 MHz) spectrum was obtained for each solution. Next, a solution of MSA (70%) dissolved in D2O was prepared and added to each NMR tube. A second ^1H NMR spectrum was immediately taken of each sample. Next, the NMR tubes were placed in a 50° C. oven, and periodically removed, analyzed by ^1H NMR, and returned to the oven.

[5] = Stability Test 2: D2O solution plus MSA (70%), 50° C. oven, 1H NMR; type: physicochemical
Protocol: as §1

physchem = settings: aqueous with cosolvent or surfactant or cyclodextrin, thermodynamic from solid
Protocol: as §2

For `OCCSCCSCCO` [Comparative 1, 2,2′-[1,2-ethanediylbis(thio)]bis-ethanol, reference compound], the solubility [1] was 30 to 35 mg/mL (≈ 165 to 192 mM), the “Stability (at 50° C.)” value [2] was less than 24 h and the “Behaviour upon extended storage or long term use in the electroplating bath” value [3] was “polymerize”. For the same compound, the “Formation of precipitate (Test 1, visual inspection)” value ([4]; after 60 hours) was “a copious amount of a white, flocculent precipitate” and the “Change of 1H NMR spectrum (Test 2)” value ([5]; 5.96 mg/mL in D2O, immediately upon addition of the MSA solution) was “loss of the ^1H NMR spectrum”.

`O=C(O)CSCCSCC(=O)O` [Compound 3, 2,2′-(Ethane-1,2-diylbis(sulfanediyl))diacetic acid] gave a solubility [1] of 30 mg/mL (≈ 143 mM).

In the case of `O=C(O)CC(SCSC(CC(=O)O)C(=O)O)C(=O)O` (stereo not drawn) [Compound 9, 2,2′-(Methylenebis(sulfanediyl))disuccinic acid], the solubility [1] is reported as roughly 10 mg/mL (≈ 32 mM) and the “Stability (at 50° C.)” value [2] is reported as greater than 3 weeks.

With `O=C(O)CSCSCC(=O)O` [Compound 8, 2,2′-(Methylenebis(sulfanediyl))diacetic acid] the solubility [1] was greater than 50 mg/mL and the “Stability (at 50° C.)” value [2] was greater than 3 weeks.

In the case of `OCCCSCCSCCCO` [Compound 6, 3,3′-[1,2-Ethanediylbis(thio)]bis-1-propanol], the solubility (physchem) is reported as 5 mg/mL (≈ 23.8 mM), the “Stability (at 50° C.)” value [2] is reported as greater than 3 weeks and the “Stability compared with Comparatives 1 and 2” value [2] is reported as “significantly better”. For the same compound, the “Formation of precipitate (Test 1, visual inspection)” value ([4]; after 120 hours) was “no precipitate formation” and the “Change of 1H NMR spectrum (Test 2)” value ([5]; 5.96 mg/mL in D2O plus MSA (70%), 50° C., after 7 days) was “no change in the ^1H NMR spectrum”.

`O=S(=O)(O)CCSCCSCCS(=O)(=O)O` [Compound 4, 2,2′-(Ethane-1,2-diylbis(sulfanediyl))diethanesulfonic acid] gave a solubility [1] greater than 60 mg/mL.

In the case of `OCCSCSCCO` [Comparative 2, 2,2′-(Methylenebis(sulfanediyl))diethanol, reference compound], the solubility [1] is reported as greater than 50 mg/mL and the “Stability (at 50° C.)” value [2] is reported as less than 1 week.

For `O=S(=O)(O)CCSCCCSCCS(=O)(=O)O` [Compound 11, 2,2′-(Propane-1,3-diylbis(sulfanediyl))diethyl sulfonate], the solubility [1] was greater than 50 mg/mL and the “Stability (at 50° C.)” value [2] was greater than 3 weeks.

With `OCCCSCSCCCO` [Compound 7, 3,3′-(Methylenebis(sulfanediyl))dipropanol] the solubility [1] was greater than 50 mg/mL, the “Stability (at 50° C.)” value [2] was greater than 3 weeks and the “Stability compared with Comparatives 1 and 2” value [2] was “significantly better”.

`O=S(=O)(O)CCCSCCSCCCS(=O)(=O)O` [Compound 5, 3,3′-(ethane-1,2-diylbis(sulfanediyl))bis(propane-1-sulfonic acid)] gave a solubility [1] greater than 60 mg/mL.

`NC(=O)CCSCCSCCC(N)=O` [Compound 1, 3,3′-(Ethane-1,2-diylbis(sulfanediyl))dipropanamide] showed a solubility [1] of less than 5 mg/mL.

`O=C(O)CCSCCSCCC(=O)O` [Compound 2, 3,3′-(Ethane-1,2-diylbis(sulfanediyl))dipropanoic acid] showed a solubility [1] of less than 5 mg/mL.

With `O=S(=O)(O)CCCSCCCSCCCS(=O)(=O)O` [Compound 12, 3,3′-(Propane-1,3-diylbis(sulfanediyl))dipropyl sulfonate] the solubility [1] was greater than 50 mg/mL and the “Stability (at 50° C.)” value [2] was greater than 3 weeks.

For `O=C(O)CSCCCSCC(=O)O` [Compound 10, 2,2′-(Propane-1,3-diylbis(sulfanediyl))diacetic acid], the solubility [1] was greater than 50 mg/mL and the “Stability (at 50° C.)” value [2] was greater than 3 weeks.
